The values below come from patent publication US20100069346A1, “New Azetidine Derivatives as Neurokinin Receptor Antagonists for the Treatment of Gastrointestinal Diseases” (priority 2005, published 2010).

In data set [1] the target is T1, Human Neurokinin-2 (NK2) Receptor (Homo sapiens, UniProt P21452).
T1 sequence (P21452 1-398): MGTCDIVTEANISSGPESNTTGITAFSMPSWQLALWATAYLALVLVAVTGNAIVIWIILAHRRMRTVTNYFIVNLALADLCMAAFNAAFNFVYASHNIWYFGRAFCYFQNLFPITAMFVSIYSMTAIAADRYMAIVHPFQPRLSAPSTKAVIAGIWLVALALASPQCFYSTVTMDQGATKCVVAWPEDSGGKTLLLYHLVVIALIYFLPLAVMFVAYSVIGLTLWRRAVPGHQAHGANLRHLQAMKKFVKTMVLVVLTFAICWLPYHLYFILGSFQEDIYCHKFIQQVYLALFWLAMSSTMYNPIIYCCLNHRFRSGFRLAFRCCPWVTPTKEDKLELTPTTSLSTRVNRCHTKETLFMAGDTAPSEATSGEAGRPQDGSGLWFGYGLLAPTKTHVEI
The following applies: Bioorg. Med. Chem. Lett. (2003), 13, 2211-2215; cited from earlier work.

Data set [2] concerns the target T2, human NK2 receptor (Homo sapiens, UniProt P21452).
T2 construct: expressed in transfected cells; host or cells: CHO-K1 cells (ATCC), hNK2R cDNA in pRc/CMV
T2 sequence (P21452 1-398): T1 sequence (P21452 1-398)
As to the kind of experiment: FLIPR assay, inhibition of human NK2 receptor activation (intracellular Ca2+). Format: cell-based. The following applies: CHO cells with human NK2 receptor, agonist NKA, read-out: pKB (NK2) (converted). Here is the method:
(§1) Chinese Hamster Ovary (CHO) K1 cells (obtained from ATCC) were stably transfected with the human NK2 receptor (hNK2R cDNA in pRc/CMV, Invitrogen) or the human NK3 receptor (hNK3R in pcDNA 3.1/Hygro (+)/IRES/CD8, Invitrogen vector modified at AstraZeneca EST-Bio UK, Alderley Park). The cells were transfected with the cationic lipid reagent LIPOFECTAMINE™ (Invitrogen) and selection was performed with Geneticin (G418, Invitrogen) at 1 mg/ml for the hNK2R transfected cells and with Hygromycin (Invitrogen) at 500 μg/ml for the hNK3R transfected cells. Single cell clones were collected by aid of Fluorescence Activated Cell Sorter (FACS), tested for functionality in a FLIPR assay (see below), expanded in culture and cryopreserved for future use. CHO cells stably transfected with human NK1 receptors originates from AstraZeneca R&D, Wilmington USA. Human NK1 receptor cDNA (obtained from RNA-PCR from lung tissue) was subcloned into pRcCMV (Invitrogen). Transfection was performed by Calcium Phosphate and selection with 1 mg/ml G418. […]
(§2) The activity of a compound of the invention to inhibit NK1/NK2/NK3 receptor activation measured as NK1/NK2/NK3 receptor mediated increase in intracellular Ca^2+ was assessed by the following procedure: […]

The target of data set [3] is hERG-encoded potassium channel (Homo sapiens, UniProt Q12809). The data set can be described thus: Activity against hERG (planar-array-based voltage clamp, Kiss et al.). The format is cell-based. An excerpt:
The activity of compounds according to formula I against the hERG-encoded potassium channel can be determined according to Kiss L, et al. Assay Drug Dev Technol. 1 (2003), 127-35: “High throughput ion-channel pharmacology: planar-array-based voltage clamp”.
(The hERG channel carries a current that helps repolarise heart muscle cells.)

Data set [4] deals with T3, human NK3 receptor (Homo sapiens, UniProt P29371).
T3 construct: expressed in transfected cells; host or cells: CHO-K1 cells (ATCC), hNK3R in pcDNA 3.1/Hygro (+)/IRES/CD8
T3 sequence (P29371 1-465): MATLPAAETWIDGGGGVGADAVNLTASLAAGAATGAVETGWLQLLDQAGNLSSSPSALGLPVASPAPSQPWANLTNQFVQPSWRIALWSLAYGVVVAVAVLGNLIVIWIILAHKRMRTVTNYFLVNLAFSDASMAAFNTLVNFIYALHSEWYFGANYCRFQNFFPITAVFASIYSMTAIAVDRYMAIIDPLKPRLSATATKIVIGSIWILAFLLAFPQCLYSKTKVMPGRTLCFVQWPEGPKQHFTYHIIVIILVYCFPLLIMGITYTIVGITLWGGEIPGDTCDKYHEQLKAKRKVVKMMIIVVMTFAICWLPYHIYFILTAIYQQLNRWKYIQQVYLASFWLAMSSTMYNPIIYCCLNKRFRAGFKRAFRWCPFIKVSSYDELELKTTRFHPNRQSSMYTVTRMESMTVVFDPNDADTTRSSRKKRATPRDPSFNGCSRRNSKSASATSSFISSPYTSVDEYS
As to the kind of experiment: FLIPR assay, inhibition of human NK3 receptor activation (intracellular Ca2+). Format: cell-based. The following applies: CHO cells with human NK3 receptor, agonist Pro-7-NKB, read-out: pKB (NK3) (converted). Here is the method:
as §1, §2

In data set [5] the target is T4, human NK1 receptor (Homo sapiens, UniProt P25103).
T4 construct: expressed in transfected cells; host or cells: CHO cells (AstraZeneca R&D Wilmington), cDNA in pRcCMV
T4 sequence (P25103 whole entry): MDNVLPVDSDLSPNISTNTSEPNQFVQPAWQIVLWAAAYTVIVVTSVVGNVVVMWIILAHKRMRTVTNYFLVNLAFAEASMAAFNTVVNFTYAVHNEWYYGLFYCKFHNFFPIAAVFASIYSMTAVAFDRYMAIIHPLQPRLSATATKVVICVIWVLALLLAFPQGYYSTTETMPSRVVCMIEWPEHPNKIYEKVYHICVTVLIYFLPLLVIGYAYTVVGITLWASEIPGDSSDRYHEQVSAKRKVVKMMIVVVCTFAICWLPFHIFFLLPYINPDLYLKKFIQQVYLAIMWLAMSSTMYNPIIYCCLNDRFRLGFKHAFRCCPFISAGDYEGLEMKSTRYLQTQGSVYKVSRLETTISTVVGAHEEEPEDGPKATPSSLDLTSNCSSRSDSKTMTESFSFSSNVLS
As to the kind of experiment: FLIPR assay, inhibition of human NK1 receptor activation (intracellular Ca2+). The following applies: CHO cells with human NK1 receptor, agonist Substance P, read-out: pKB (NK1) (converted). The format is cell-based. The protocol: as §1, §2

Data set [6] in a line: Metabolic stability in liver microsomes (HLM). The following applies: pH 7.4; human liver microsomes. Format: in vitro ADME. Here is the method: Stability against human microsomal metabolism in vitro is indicative of stability towards metabolism in vivo.
The metabolic stability of compounds according to formula I can be determined as described below: […]
The rate of biotransformation can be measured as either metabolite(s) formation or the rate of disappearance of the parent compound. The experimental design involves incubation of low concentrations of substrate (usually 1.0 μM) with liver microsomes (usually 0.5 mg/ml) and taking out aliquots at varying time points (usually 0, 5, 10, 15, 20, 30, 40 min.). The test compound is usually dissolved in DMSO. The DMSO concentration in the incubation mixture is usually 0.1% or less since more solvent can drastically reduce the activities of some CYP450s. Incubations are done in 100 mM potassium phosphate buffer, pH 7.4 and at 37° C. Acetonitrile or methanol is used to stop the reaction.
A general note: Microsomes from liver hold many membrane-bound enzymes, among them those of drug oxidation.

In data set [7] the target is CYP3A4 (Homo sapiens, UniProt P08684). The data set can be described thus: CYP3A4 inhibition assay (Bapiro et al.). The format is in vitro ADME. An excerpt: It is well known that severe problems such as toxicity may occur if plasma levels of one medication are altered by the co-administration of another drug. […] CYP (cytochrome P450) 3A4 is the most important enzyme in the human liver as a majority of oxidised drugs have been biotransformed by this enzyme. Accordingly, it is undesirable to employ a medication having a significant degree of such liver enzyme inhibiting properties. […] Thus, there is a need for a novel NK receptor antagonist with improved pharmacokinetic properties. The present invention provides compounds with CYP3A4 enzyme inhibiting properties at a low level, as comparatively high IC50 values are obtained in a CYP3A4 inhibiting assay. Said method for determining CYP3A4 inhibition is described in Bapiro et al; Drug Metab. Dispos. 29, 30-35 (2001).
Chain of CYP3A4 (P08684 whole entry): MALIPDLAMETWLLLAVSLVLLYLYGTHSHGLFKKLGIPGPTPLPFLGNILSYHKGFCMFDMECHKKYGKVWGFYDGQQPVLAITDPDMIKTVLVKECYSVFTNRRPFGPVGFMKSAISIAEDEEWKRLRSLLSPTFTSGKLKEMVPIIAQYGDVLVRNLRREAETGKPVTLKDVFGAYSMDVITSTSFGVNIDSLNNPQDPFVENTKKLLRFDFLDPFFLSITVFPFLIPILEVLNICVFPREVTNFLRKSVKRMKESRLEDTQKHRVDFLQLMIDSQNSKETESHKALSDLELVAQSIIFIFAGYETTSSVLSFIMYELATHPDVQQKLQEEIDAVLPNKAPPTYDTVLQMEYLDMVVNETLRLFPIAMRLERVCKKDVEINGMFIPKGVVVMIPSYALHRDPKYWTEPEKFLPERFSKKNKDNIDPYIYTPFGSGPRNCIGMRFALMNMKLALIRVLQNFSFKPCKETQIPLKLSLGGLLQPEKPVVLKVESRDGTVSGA
The IC50 values tested according to Bapiro et al; Drug Metab. Dispos. 29, 30-35 (2001) were generally greater than 2 μM.

Chain of hERG-encoded potassium channel (Q12809 whole entry): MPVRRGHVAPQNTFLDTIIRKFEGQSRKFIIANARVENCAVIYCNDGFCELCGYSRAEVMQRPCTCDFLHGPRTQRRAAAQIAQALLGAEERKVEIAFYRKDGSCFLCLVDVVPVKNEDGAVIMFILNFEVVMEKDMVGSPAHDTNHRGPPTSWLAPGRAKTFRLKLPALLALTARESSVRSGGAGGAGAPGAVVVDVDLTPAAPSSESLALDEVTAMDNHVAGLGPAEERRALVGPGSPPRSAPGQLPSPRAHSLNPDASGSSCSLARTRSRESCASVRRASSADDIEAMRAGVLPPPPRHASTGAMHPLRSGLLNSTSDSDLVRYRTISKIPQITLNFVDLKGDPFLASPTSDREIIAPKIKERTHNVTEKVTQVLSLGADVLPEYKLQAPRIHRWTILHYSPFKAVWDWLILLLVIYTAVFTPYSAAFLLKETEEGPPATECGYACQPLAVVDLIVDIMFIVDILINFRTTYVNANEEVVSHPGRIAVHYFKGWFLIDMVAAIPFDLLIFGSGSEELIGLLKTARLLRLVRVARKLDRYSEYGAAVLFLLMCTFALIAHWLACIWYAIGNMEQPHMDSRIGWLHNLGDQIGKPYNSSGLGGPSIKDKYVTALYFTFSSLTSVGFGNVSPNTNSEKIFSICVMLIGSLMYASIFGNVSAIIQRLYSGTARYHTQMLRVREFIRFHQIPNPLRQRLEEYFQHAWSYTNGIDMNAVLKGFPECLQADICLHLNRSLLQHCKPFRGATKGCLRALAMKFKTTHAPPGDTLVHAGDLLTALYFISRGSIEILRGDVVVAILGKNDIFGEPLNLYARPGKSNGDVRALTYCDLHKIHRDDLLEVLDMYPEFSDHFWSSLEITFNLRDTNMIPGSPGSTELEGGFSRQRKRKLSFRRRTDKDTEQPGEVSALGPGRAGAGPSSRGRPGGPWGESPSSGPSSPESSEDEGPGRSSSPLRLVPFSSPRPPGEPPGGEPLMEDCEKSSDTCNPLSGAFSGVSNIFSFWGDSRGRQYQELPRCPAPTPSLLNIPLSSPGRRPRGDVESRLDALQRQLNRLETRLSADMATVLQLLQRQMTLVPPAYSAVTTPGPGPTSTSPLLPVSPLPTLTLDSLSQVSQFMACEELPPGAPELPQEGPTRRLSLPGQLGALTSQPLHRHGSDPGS

Turning to `CN(CC(CCN1CC(N2CCOCC2)C1)c1ccc(Cl)c(Cl)c1)C(=O)c1ccccc1` (stereo not shown) [N-[2-(3,4-dichlorophenyl)-4-(3-morpholin-4-ylazetidin-1-yl)butyl]-N-methylbenzamide], the “functional NK2 receptor antagonism” value in data set [1] is recorded as “functional NK2 receptor antagonistic properties”.
Take `CN(C[C@@H](CCN1CC(N2CCOC[C@H]2CCO)C1)c1ccc(F)cc1)C(=O)c1cc(Br)cc(C(F)(F)F)c1` [Ex 5, 3-Bromo-N-((2S)-2-(4-fluorophenyl)-4-{3-[(3R)-3-(2-hydroxyethyl)morpholin-4-yl]azetidin-1-yl}butyl)-N-methyl-5-(trifluoromethyl)benzamide]: the Kb in data set [2] was 25.1 nM; in data set [4], 20 nM; in data set [5], 7.94 nM. The results for the IC50 in data set [3] and in data set [7] were 18800 nM and 19200 nM, respectively. Besides, the microsomal CLint at 1 μM in data set [6] was 40.7 µL/min/mg.

By IC50 is commonly meant the midpoint of a concentration-inhibition curve. The low end stands for greater potency, the high end for weaker potency. One may read the microsomal CLint as the rate of metabolic loss divided by the concentration. Read a low microsomal CLint as slow turnover.
